# From patent US20250064890A1, “PROTEIN COMPOSITIONS FOR THE TREATMENT OF INFLAMMATORY DISEASES” (Unichem Laboratories Limited, priority 2021, published 2025)
# Assays:
# NF-kB = experiment: Multiplex analysis, radiotherapy, TR146 cell lysates; assay type: cell-based, human
# Protocol: Oral buccal mucosal cells (TR146) cells were incubated overnight at 37° C. in 5% CO2 incubator. […] The cells were then stimulated with 5-FU (10 mM) for another 24h for chemotherapy and with gamma radiation (3.5 kGy) using Cobalt 60 for radiotherapy. After 24 h, cell culture supernatants were collected from each well and stored at −20° C. till multiplex analysis. For NF-kB estimations, cell lysates were prepared. Levels of biomarkers were estimated using Magpix® multiplex machine. The cells treated with Amifostine (along with 5-FU or radiation) were considered as positive control (PC). Untreated cells (5-FU or radiation alone treated) were used as negative control (NC).
# The percent modulation in each sample was determined as follows:
# [{Concentration of biomarkers (pg/ml) in Control cells (5-FU or radiation alone treated)−Concentration of biomarkers (pg/ml) in SEQ ID NO: 2+5-FU or radiation treated cells)}/Concentration of biomarkers (pg/ml) in Control cells (5-FU or radiation alone treated)]*100
# [1] = test system: oral (buccal) mucosa cells (TR146); experiment: Cytoprotective effect against 5-FU induced damage (MTT); assay type: cell-based, human
# Protocol: The cell viability was assessed by (MTT) assay and compared with positive control (Cells treated with Amifostine, EGCG and EGF and negative assay (untreated cells), wherein the control was the cells that underwent chemotherapy/radiotherapy.
# The protective effect of the recombinant lectin on survival of TR146 cells against 5-FU induced damage was determined using following calculations:
# The viability of cells was determined as: % Cell viability=(100−% Cytotoxicity); • where, the percentage cytotoxicity corresponding to each treatment was calculated as: % Cytotoxicity=[(R−X)/R]*100, wherein X=Absorbance of cells treated with 5-FU or radiation damage/TI+5-FU, R=Absorbance of Control cells (Untreated) and Percentage protection was calculated as:
# {(Absorbance of TI+5-FU or radiation)−(Absorbance of 5-FU or radiation alone)/(Absorbance of Untreated)−(Absorbance of 5-FU alone)}*100
# [2] = test system: oral (buccal) mucosa cells (TR146); experiment: Sub(G0/G1) cell population (cell cycle) against radiation induced damage; assay type: cell-based, human; settings: for % Decrease in Apoptotic cells (with respect to control): Sub G0/G1
# Protocol: To determine the effect of test item on cell cycle, oral buccal mucosal cells (TR146) were incubated overnight in 5% CO2 incubator at 37° C. for 24 h. […] After 24 h of treatment, cells were exposed to chemotherapy (5-FU 10 mM) for 24 h or radiotherapy (Gamma radiation (3.5 kGy) using Cobalt 60) for 2 h.
# After incubation, cells were harvested by trypsinization and processed for Cell cycle assay. Accordingly, cells were harvested into prelabeled centrifuge tubes and centrifuged at 450 g for 5 min at room temperature (RT, low brake). The supernatants were removed carefully and discarded. 1 ml of 1× phosphate buffer saline (PBS) was added to the pellet and resuspended gently to make homogenous suspension. Cells were centrifuged at 450 g for 5 min, RT (low brake). The supernatant was carefully removed leaving behind approx. 100 μl of PBS. Cells were resuspended gently yet thoroughly in residual PBS. Ice-cold 70% ethanol (100 μl) was added drop-wise into cells in each tube while vortexing at low speed (fixation step). Cells stored at 4° C. for 24 h were centrifuged at 450 g for 5 min, RT (low brake). The supernatant was carefully removed without touching the pellet and discarded. 1 ml of 1×PBS was added into pellet and resuspended gently. Cells were incubated for 1 minute at RT. Cells were centrifuged at 450 g for 5 min, RT (low brake). The supernatant was removed carefully without touching the pellet, leaving behind approx. 20-50 μl of PBS. 200 μl of cell cycle reagent was added into each tube. Cells were resuspended gently and mixed. Cells were incubated for 30 min at RT in the dark. The stained samples were transferred into 96-well plates and acquired on flow cytometer (Guava technologies). Percentage of cells in Sub (G0/G1) phase were determined based on the concept that cell cycle reagent contains PI stain, which stains DNA of cells in different phases of cell cycle; Sub (G0/G1), G1, S, G2 and M. Cells in Sub (G0/G1) phase correspond to apoptotic cells. Percent inhibition in apoptotic cells is determined by the formula:
# =[(% Sub(G0/G1) cells in 5-FU/radiation alone)−(% Sub(G0/G1) cells in TI+5-FU/radiation)/% Sub(G0/G1) cells in 5-FU/radiation alone]*100
# [3] = test system: oral (buccal) mucosa cells (TR146); settings: human, 24 h
# Protocol: Non-cytotoxic concentration of recombinant lectin having the amino acid sequence of SEQ ID NO: 2 was determined by treating oral (buccal) mucosa cells (TR146) with varying concentration of SEQ ID NO: 2 for 24 hrs and determining the cell viability using MTT assay.
# [4] = 0.1 μg/ml + Radiation (3.5 kGy)
structure (smiles),measurement,setting,value
"NCCCNCCSP(=O)(O)O [Amifostine, reference compound]",Percentage Inhibition NF-kB,NF-kB; [4],15.8%
same,Percentage Inhibition NF-kB,NF-kB; 10 μg/ml + Radiation (3.5 kGy),17.7%
same,% Protection,[1]; 1 μg/ml + 5-FU (5 mM),4.1%
same,% Protection,[1]; 5 μg/ml + 5-FU (5 mM),28.8%
same,% Protection,[1]; 10 μg/ml + 5-FU (5 mM),55.2%
same,% Protection,[1]; 25 μg/ml + 5-FU (5 mM),37.5%
same,% Apoptotic cells (Sub G0/G1),[2]; [4],19.4%
same,% Decrease in Apoptotic cells (with respect to control),[2]; [4],45.1%
same,% Apoptotic cells (Sub G0/G1),[2]; 1 μg/ml + Radiation (3.5 kGy),21.8%
same,% Decrease in Apoptotic cells (with respect to control),[2]; 1 μg/ml + Radiation (3.5 kGy),38.2%
same,% Apoptotic cells (Sub G0/G1),[2]; 10 μg/ml + Radiation (3.5 kGy),12.9%
same,% Decrease in Apoptotic cells (with respect to control),[2]; 10 μg/ml + Radiation (3.5 kGy),63.5%
same,non-cytotoxic concentration range,[3],1 to 25 µg/mL
